# Reference: patent publication US7833532B2, “Immunogenic lipopeptides comprising T-helper and cytotoxic T lymphocyte (CTL) epitopes” (The Council of The Queensland Institute of Medical Research, priority 2002, dated 2010)
# “Also recorded” adds a separate entry of the source. Side chains are listed from the residue outwards. Ends that are not written are not given here.
# Columns and labels:
# Listeria monocytogenes = assay: Protection against L. monocytogenes challenge (colony forming units in liver); assay type: in vivo; conditions: 9 nmol subcutaneously, i.v. challenge 28 days after priming, CFU in liver; relative to non-lipidated peptide or PBS
# Source text: FIG. 12 is a graphical representation showing enhanced protection against L. monocytogenes infection for mice immunized with the lipopeptide designated [P25]-Lys(Pam2Cys-Ser-Ser)-[LLO91-99] in FIG. 2 (based upon SEQ ID NO: 175). Five 5 BALB/c mice were inoculated intravenously with 1,000 bacteria (column 1), or immunized subcutaneously with PBS (column 2) or 9 nmol [P25]-Lys(Pam2Cys-Ser-Ser)-[LLO91-99] peptide (column 3) or 9 nmol non-lipidated [P25]-Lys-[LLO091-99] peptide (SEQ ID NO: 175; column 4), as indicated on the x-axis. Mice were challenged with whole bacteria and the number of colony forming units present in liver was measured 28 days post-challenge (ordinate).
# Listeria monocytogenes EGD was cultured overnight at 37° C. on Horse Blood Agar (HBA) plates. The bacteria were washed off the plates using sterile PBS and the concentration adjusted to 5×10^3 Listeria cells/ml. Balb/c mice were infected intravenously with 1×10^3 Listeria cells. The dose was checked retrospectively by plating serial 10-fold dilutions on HBA plates.
# Mice immunized s.c. with 9 nmol peptide immunogen or PBS, or i.v. with 1000 bacteria, were challenged by i.v. injection with bacteria 28 days after priming and the number of colony forming units of bacteria present in the liver determined 28 days after challenge.
# splenocytes = assay: IFN-gamma producing splenocytes after immunization with L. monocytogenes CTL epitope peptides; assay type: in vivo, BALB/c mice; conditions: 9 nmoles subcutaneously, in vitro stimulation with CTL epitope, day 28
# Source text: FIG. 11 is a graphical representation showing induction of interferon-gamma producing cells by lipopeptide. Peptide comprising a T-helper epitope and a CTL epitope of Listeria monocytogenes linked via the epsilon amino group of an internal lysine residue positioned between said epitopes to Pam2Cys (i.e. the peptide [P25]-Lys(Pam2Cys-Ser-Ser)-[LLO91-99] listed in FIG. 2 and based upon SEQ ID NO: 175), or lipopeptide(s) based on this structure in which Pam2Cys was linked through the epsilon amino group of said lysine, were used to inoculate mice. […] Splenocytes were obtained from the immunized animals and stimulated in vitro with either the isolated CTL epitope having the sequence set forth in SEQ ID NO: 172 (open bars) or no antigen (filled bars), and the number of (IFN-gamma) producing cells present was measured 28 days later. […]
# 5 BALB/c mice were inoculated with 9 nmoles of non-lipidated peptide ([P25]-Lys-[LLO91-99]), or lipidated peptide ([P25]-Lys(Pam2Cys-Ser-Ser)-[LLO91-99]) in which lipid was attached between the two epitopes at the approximate centre of the molecule, or with 1000 bacteria. […] The number of interferon-γ producing cells present in spleen was measured on day 28 following in vitro stimulation with the CTL epitope or no antigen. […]
substance,measurement,setting,value
[P25]-Lys(Pam2Cys-Ser-Ser)-[LLO91-99]: peptide [P25]-Lys-[LLO91-99] and a lipid of the Formula (IV) conjugated to the epsilon-amino group of the internal lysine (KLIPNASLIENCTKAELK([Ser-Ser-Pam2Cys])GYKDGNEYI),protection against challenge with whole bacteria,Listeria monocytogenes,successfully provides protection; also recorded: significantly enhanced protection
same,IFN-γ producing cells per million splenocytes relative to non-lipidated peptide or PBS control,splenocytes,about 15 fold
